One molecule from patent US8691757B2 (Bristol-Myers Squibb Company, priority 2011, dated 2014) can be followed below.

pEC50: −log10 of the molar value.

Test [1] deals with HCV genotype 1a (H77 strain) replicon in HUH-7 cells. As to the kind of experiment: HCV replicon luciferase reporter assay, genotype 1a. The format is cell-based. The note with it: Hepatitis C virus, 72 h, HCV genotype 1a replicon, 3 days incubation, Renilla luciferase, range classes. The method, boiled down: (§1)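 Stable HUH-7 replicon lines (1b Con1 with S1179I; 1a H77 with P1496L and S2204I) carrying Renilla luciferase were incubated 3 days at 37 °C with compound in 4% FCS, 0.5% DMSO. Luminescence was read after 2 h with 7.5 μM EnduRen, EC50 from four-parameter logistic fit; CC50 came from multiplexed Cell Titer-Blue (8 h).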

Test [2] concerns HCV genotype 1b (Con1) replicon in HUH-7 cells. As to the kind of experiment: HCV replicon luciferase reporter assay, genotype 1b. Format: cell-based. To be noted: Hepatitis C virus, 72 h, HCV genotype 1b replicon, 3 days incubation, Renilla luciferase, range classes. The method, boiled down:
as §1
On the technique in general: In antiviral work, replicon cells carry a viral genome segment that copies itself.

Usually pEC50 stands for the negative decadic logarithm of the EC50, by convention in mol/L. A lower pEC50 goes with a large EC50. For the molecule `COc1cnc(O[C@@H]2C[C@H]3C(=O)N[C@]4(C(=O)NS(=O)(=O)C5CC5)C[C@H]4/C=C\[C@H](C)CCC[C@@H](C)[C@H](NC(=O)OC(C)(C)C(F)(F)F)C(=O)N3C2)c2cccc(Cl)c12` [Compound 7, 1,1,1-trifluoro-2-methylpropan-2-yl (2R,6S,7R,11R,13aS,14aR,16aS,Z)-2-(5-chloro-4-methoxyisoquinolin-1-yloxy)-14a-(cyclopropylsulfonylcarbamoyl)-7,11-dimethyl-5,16-dioxo-1,2,3,5,6,7,8,9,10,11,13a,14,14a,15,16,16a-hexadecahydrocyclopropa[e]pyrrolo[1,2-a][1,4]diazacyclopentadecin-6-ylcarbamate], the values for the pEC50 in test [1] and in test [2] were 8.70 to 9.00 and 9.00 to 9.70, respectively.
